How the values were obtained:
anaesthetised rats = assay: intravenous toxicity in anaesthetised rats; assay type: in vivo; settings: two anaesthetised rats, ten times the dose giving approximate 50% inhibition of gastric secretion in the anaesthetised rat
Protocol: (§1) No overt toxicity or side effects were noted during the rat or dog tests. The compound 4-[3-(4-[2-(2,2,2-trifluoroethyl)guanidino]pyrimid-2-ylthio)propyl]-imidazole was administered intravenously to groups of two anaesthetised rats and four conscious mice at doses which were respectively ten times and one hundred times the dose, in mg./kg., which produced an approximate 50% inhibition of gastric secretion in the anaesthetised rat.

conscious mice = assay: intravenous toxicity in conscious mice; assay type: in vivo; settings: four conscious mice, one hundred times the dose giving approximate 50% inhibition of gastric secretion in the anaesthetised rat
Protocol: as §1

With `NC(=NCC(F)(F)F)Nc1ccnc(SCCCc2c[nH]cn2)n1.O=C(O)/C=C\C(=O)O` [Example 2, 4-[3-(4-[2-(2,2,2-trifluoroethyl)guanidino]pyrimid-2-ylthio)propyl]imidazole dihydrogen maleate] the toxic symptoms (anaesthetised rats) was “No toxic symptoms were noted” and the toxic symptoms (conscious mice) was “No toxic symptoms were noted”.

Reference: patent US4463005A, “Bicyclic guanidines” (Imperial Chemical Industries PLC, priority 1981, dated 1984)
